In US20240294518A1, “NITROGEN-CONTAINING HETEROCYCLIC COMPOUND” (Evopoint Biosciences Co., Ltd., priority 2021, published 2024) one finds IC50 data, which are given here for 33 molecules.

The assay has as its target HPK1 kinase (Homo sapiens, UniProt Q92918). The assay is described as follows: HPK1 kinase inhibition assay, ADP-Glo platform. The format is biochemical. The following applies: 0.3 nM HPK1, 5 μM ATP, 0.05 mg/mL MBP. The protocol:
The compounds to be tested were each dissolved in 100% DMSO, with the mother liquor concentration being 10 mM. The liquor was 3-fold diluted at a test starting concentration of 10 μM to yield ten data points, with two replicates set for each point.
The inhibition of the activity of HPK1 kinase by the compound was assayed using an ADP-Glo™ platform. The reaction was performed in a 384-well plate containing 0.3 nM HPK1, 5 μM ATP, 0.05 mg/mL MBP, 0-10 μM compound, and 1% DMSO per well. The reaction buffer was as follows: 50 mM HEPES, 10 mM MgCl2, 1 mM EGTA, 1 mM DTT, 0.01% Brij 35, pH=7.5. The compound and the kinase were incubated at 25° C. for 15 min, and a substrate and ATP were added to initiate the reaction. After 1 h of reaction at 25° C., the ADP-Glo™ reagent was added, and the reaction was terminated, followed by incubation at 25° C. for 1 h. The kinase detection reagent was added, and after 1 h of incubation at 25° C., the chemiluminescence signal was detected. Based on this reading, inhibition percentage was calculated, and IC50 for the compound was calculated using four-parameter fitting.
In general terms: ADP-Glo first removes unused ATP, then detects ADP through luciferase.

Molecules are shown by their SMILES.

HPK1 kinase, sequence (Q92918 whole entry): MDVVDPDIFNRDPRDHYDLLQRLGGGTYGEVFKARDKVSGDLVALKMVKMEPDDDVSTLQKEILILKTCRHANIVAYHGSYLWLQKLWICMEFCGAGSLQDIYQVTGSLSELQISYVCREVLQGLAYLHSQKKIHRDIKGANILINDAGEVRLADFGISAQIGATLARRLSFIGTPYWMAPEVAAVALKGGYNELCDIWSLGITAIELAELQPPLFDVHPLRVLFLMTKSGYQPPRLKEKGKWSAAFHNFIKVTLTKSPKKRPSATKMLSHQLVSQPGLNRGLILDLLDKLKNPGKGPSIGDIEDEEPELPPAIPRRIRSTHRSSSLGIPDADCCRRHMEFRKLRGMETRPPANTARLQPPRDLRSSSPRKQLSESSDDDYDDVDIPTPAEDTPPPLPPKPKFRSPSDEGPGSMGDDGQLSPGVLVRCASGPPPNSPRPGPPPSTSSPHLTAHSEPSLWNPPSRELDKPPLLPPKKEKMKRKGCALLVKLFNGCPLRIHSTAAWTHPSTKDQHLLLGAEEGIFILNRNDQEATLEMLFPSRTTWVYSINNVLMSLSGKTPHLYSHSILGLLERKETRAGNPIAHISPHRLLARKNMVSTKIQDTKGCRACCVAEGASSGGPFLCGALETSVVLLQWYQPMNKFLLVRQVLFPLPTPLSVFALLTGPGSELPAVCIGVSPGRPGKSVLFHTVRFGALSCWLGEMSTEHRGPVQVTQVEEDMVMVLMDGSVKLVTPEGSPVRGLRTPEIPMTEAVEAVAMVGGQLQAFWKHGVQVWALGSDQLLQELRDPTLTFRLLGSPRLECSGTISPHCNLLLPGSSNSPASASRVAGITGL

In general, IC50 refers to the concentration that inhibits the measured activity by half. A low value points to higher potency. `Cc1c[nH]c2ncc(-c3cc(O)c(C4CCOCC4)c(C4COCCN4)c3)cc12` (stereo not drawn) [Compound A-39] showed a half-inhibitory concentration (IC50) of 0.01 to 5 nM.
Next, `Cc1cc(-c2cnc3[nH]cc(C(F)(F)F)c3c2)cc([C@H]2COCCN2)c1C1CCOCC1` [Compound A-32]: 5 to 10 nM; `Cc1c[nH]c2ncc(-c3ccc(C4CCOCC4)c(CN4CCCC4)n3)cc12` [Compound A-26]: 10 to 100 nM; `Cc1cc(-c2cnc3[nH]cc(C(F)(F)F)c3c2)nc(C2COCCN2)c1C1CCOCC1` (stereo not drawn) [Compound A-27]: 0.01 to 5 nM.
The value for `c1nc2[nH]cc(C3CC3)c2cc1-c1ccc(C2CCOCC2)c([C@@H]2COCCN2)n1` [Compound A-15] was 0.01 to 5 nM; that for `Cc1c[nH]c2ncc(-c3cc(Cl)c(C4CCOCC4)c(C4COCCN4)c3)cc12` (stereo not drawn) [Compound A-6] was 0.01 to 5 nM; that for `FC(F)(F)c1c[nH]c2ncc(-c3ccc(C4CCOCC4)c([C@@H]4COCCN4)n3)cc12` [Compound A-18] was 0.01 to 5 nM.
As for `Cc1c[nH]c2ncc(-c3ccc(C4CCOCC4)c(C4COCCN4)c3F)cc12` (stereo not drawn) [Compound A-10], the IC50 was 10 to 100 nM.
With `Cc1cc(-c2cnc3[nH]cc(C(F)(F)F)c3c2)cc([C@@H]2COCCN2)c1C1CCOCC1` [Compound A-33], the IC50 fell in the range of 0.01 to 5 nM.
`C[C@@H]1CCCN1Cc1nc(-c2cnc3[nH]cc(C4CC4)c3c2)ccc1C1CCOCC1` [Compound A-25] registered an IC50 of 0.01 to 5 nM.
For `c1nc2[nH]cc(C3CC3)c2cc1-c1ccc(C2CCOCC2)c([C@H]2COCCN2)n1` [Compound A-16], the half-inhibitory concentration (IC50) was 10 to 100 nM.
Next, `c1nc2[nH]cc(C3CC3)c2cc1-c1ccc(C2CCOCC2)c(CN2CCCC2)n1` [Compound A-22]: 0.01 to 5 nM.
Next, `COc1cc(-c2cnc3[nH]cc(C(F)(F)F)c3c2)cc([C@@H]2COCCN2)c1C1CCOCC1` [Compound A-34]: 0.01 to 5 nM.
Consider `COc1cc(-c2cnc3[nH]cc(C(F)(F)F)c3c2)cc([C@H]2COCCN2)c1C1CCOCC1` [Compound A-35], for which the 50% inhibitory concentration (IC50) is 10 to 100 nM.
The value for `CN(C)Cc1nc(-c2cnc3[nH]cc(C(F)(F)F)c3c2)ccc1C1CCOCC1` [Compound A-28] was 10 to 100 nM; that for `Cc1cc(-c2cnc3[nH]cc(C)c3c2)cc(C2COCCN2)c1C1CCOCC1` (stereo not drawn) [Compound A-5] was 0.01 to 5 nM; that for `Cc1c[nH]c2ncc(-c3cc(Cl)c(C4=CCOCC4)c(C4COCCN4)c3)cc12` (stereo not drawn) [Compound A-13] was 5 to 10 nM.
Next, `OCc1c[nH]c2ncc(-c3ccc(C4CCOCC4)c(C4COCCN4)n3)cc12` (stereo not drawn) [Compound A-21]: 5 to 10 nM; `Clc1c[nH]c2ncc(-c3ccc(C4CCOCC4)c([C@@H]4COCCN4)n3)cc12` [Compound A-20]: 0.01 to 5 nM; `C[C@H]1CCCN1Cc1nc(-c2cnc3[nH]cc(C4CC4)c3c2)ccc1C1CCOCC1` [Compound A-24]: 5 to 10 nM.
Next, `CN(C)C(=O)C#Cc1c[nH]c2ncc(-c3ccc(C4CCOCC4)c(C4COCCN4)c3)cc12` (single isomer, unassigned) [Compound A-14]: 0.01 to 5 nM.
Consider `Cc1c[nH]c2ncc(-c3cc(C4COCCN4)c(C4CCOCC4)cc3Cl)cc12` (stereo not drawn) [Compound A-8], for which the IC50 was in the range of 10 to 100 nM.
`FC(F)(F)c1c[nH]c2ncc(-c3ccc(C4CCOCC4)c(CN4CCCC4)n3)cc12` [Compound A-23] gave an IC50 of 5 to 10 nM.
As to `Clc1c[nH]c2ncc(-c3ccc(C4CCOCC4)c([C@H]4COCCN4)n3)cc12` [Compound A-19], the IC50 lay in the range of 10 to 100 nM.
In the case of `COC(=O)c1c[nH]c2ncc(-c3ccc(C4CCOCC4)c(C4COCCN4)n3)cc12` (stereo not drawn) [Compound A-29], the half-maximal inhibitory concentration (IC50) fell in the range of 0.01 to 5 nM.
Next, `Cc1c[nH]c2ncc(-c3ccc(C4CCOCC4)c(C4COCCN4)n3)c(F)c12` (stereo not drawn) [Compound A-7]: 10 to 100 nM; `COc1cc(-c2cnc3[nH]cc(C)c3c2)cc(C2COCCN2)c1C1CCOCC1` (stereo not drawn) [Compound A-9]: 5 to 10 nM; `FC(F)(F)C1(c2c[nH]c3ncc(-c4ccc(C5CCOCC5)c([C@@H]5COCCN5)n4)cc23)CC1` [Compound A-30]: 0.01 to 5 nM.
For `COc1cc(-c2cnc3[nH]cc(C)c3c2)cc([C@@H]2COCCN2)c1C1CCOCC1` [Compound A-38], the IC50 is 0.01 to 5 nM.
The value for `Cc1c[nH]c2ncc(-c3ccc(C4CCOCC4)c(C4COCCN4)c3)c(F)c12` (stereo not drawn) [Compound A-3] was 5 to 10 nM; that for `Cc1c[nH]c2ncc(-c3cc(C4COCCN4)c(C4CCOCC4)cc3F)cc12` (stereo not drawn) [Compound A-11] was 10 to 100 nM.
The value for `Cc1cc(-c2cnc3[nH]cc(C)c3c2)cc([C@@H]2COCCN2)c1C1CCOCC1` [Compound A-36] was 0.01 to 5 nM.
The molecule `Cc1cc(-c2cnc3[nH]cc(C)c3c2)cc(C2COCCN2)c1C1=CCOCC1` (stereo not drawn) [Compound A-12] registered a half-maximal inhibitory concentration (IC50) of 0.01 to 5 nM.
